Data set [1] deals with Candida albicans. Kind of data set: Antifungal activity against Candida albicans assessed as inhibition of […] growth incubated for overnight by CLSI based method. In kind it is functional.
Data set [2] relates to Candida albicans. The data set is described as follows: Antifungal activity against Candida albicans assessed as inhibition of fungal growth incubated for 24 hrs by agar well diffusion method. The class given is functional.
The subject of data set [3] is Saccharomyces cerevisiae. The data set is described as follows: Antifungal activity against Saccharomyces cerevisiae assessed as inhibition of […] growth incubated for overnight by CLSI based method. The class given is functional.
Data set [4] has as its system Aspergillus niger. Kind of data set: Antifungal activity against Aspergillus niger assessed as inhibition of […] growth incubated for overnight by CLSI based method. The class given is functional.
Data set [5] concerns Saccharomyces cerevisiae. The data set is described as follows: Antifungal activity against Saccharomyces cerevisiae assessed as inhibition of fungal growth incubated for 24 hrs by agar well diffusion method. The class given is functional. For orientation: A growth-free zone around the sample is the usual read-out of agar diffusion tests.
For data set [6], the system named is Aspergillus niger. Kind of data set: Antifungal activity against Aspergillus niger assessed as inhibition of fungal growth incubated for 24 hrs by agar well diffusion method. In kind it is functional.
The subject of a further data set is Salmonella typhi. The data set is described as follows: Antibacterial activity against Salmonella typhi assessed as inhibition of bacterial growth incubated for 24 hrs by agar well diffusion method. The class given is functional, Salmonella enterica subsp. enterica serovar Typhi.
Another data set deals with Bacillus subtilis. The data set is described as follows: Antibacterial activity against Bacillus subtilis assessed as inhibition of bacterial growth incubated for 24 hrs by agar well diffusion method. In kind it is functional.
Data set [7] has as its system Staphylococcus aureus. The data set is described as follows: Antibacterial activity against Staphylococcus aureus assessed as inhibition of bacterial growth incubated for 24 hrs by agar well diffusion method. In kind it is functional.
For a further data set, the system named is Bacillus cereus. Kind of data set: Antibacterial activity against Bacillus cereus assessed as inhibition of bacterial growth incubated for 24 hrs by agar well diffusion method. In kind it is functional.
Data set [8] relates to Staphylococcus aureus. The data set is described as follows: Antibacterial activity against Staphylococcus aureus assessed as inhibition of bacterial growth incubated for overnight by CLSI based method. The class given is functional.
In data set [9] the test system is Shigella boydii. The data set is described as follows: Antibacterial activity against Shigella boydii assessed as inhibition of bacterial growth incubated for overnight by CLSI based method. In kind it is functional.
Data set [10] has as its system Salmonella enterica subsp. enterica serovar Abony. Kind of data set: Antibacterial activity against Salmonella abony assessed as inhibition of bacterial growth incubated for 24 hrs by agar well diffusion method. The class given is functional.
The test system of data set [11] is Klebsiella aerogenes. Kind of data set: Antibacterial activity against Enterobacter aerogenes assessed as inhibition of bacterial growth incubated for overnight by CLSI based method. In kind it is functional.
Data set [12] has as its system Klebsiella aerogenes. The data set is described as follows: Antibacterial activity against Enterobacter aerogenes assessed as inhibition of bacterial growth incubated for 24 hrs by agar well diffusion method. The class given is functional.
In data set [13] the target is T1, Enoyl-[acyl-carrier-protein] reductase [NADH] (Mycobacterium tuberculosis) (UniProt P9WGR1).
T1 sequence (whole entry): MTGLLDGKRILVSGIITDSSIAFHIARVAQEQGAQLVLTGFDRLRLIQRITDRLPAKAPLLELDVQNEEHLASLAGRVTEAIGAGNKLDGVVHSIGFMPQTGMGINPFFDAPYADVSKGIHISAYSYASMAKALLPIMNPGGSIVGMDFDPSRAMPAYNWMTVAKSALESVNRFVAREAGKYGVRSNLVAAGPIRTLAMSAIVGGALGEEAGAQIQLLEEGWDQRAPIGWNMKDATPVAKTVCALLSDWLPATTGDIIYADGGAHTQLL
The data set is described as follows: Inhibition of InhA in Mycobacterium tuberculosis H37Rv assessed antitubercular activity by measuring inhibition of bacterial growth incubated for 7 days by MABA assay. The following applies: time 7.0 day. For orientation: Alamar Blue is a resazurin reagent that responds to reducing activity.

Another data set has as its system Pseudomonas aeruginosa. Kind of data set: Antibacterial activity against Pseudomonas aeruginosa assessed as inhibition of bacterial growth incubated for 24 hrs by agar well diffusion method. The class given is functional.
Data set [14] has as its system Shigella boydii. Kind of data set: Antibacterial activity against Shigella boydii assessed as inhibition of bacterial growth incubated for 24 hrs by agar well diffusion method. The class given is functional.
In a further data set the test system is Escherichia coli. Kind of data set: Antibacterial activity against Escherichia coli assessed as inhibition of bacterial growth incubated for 24 hrs by agar well diffusion method. The class given is functional.
The nature of data set [15]: Cytotoxicity against human HEK293 cells assessed as inhibition of cell growth at 25 uM incubated for 48 hrs by MTT assay. In kind it is cell-based. (In general: Tetrazolium assays rely on reduction of a dye to a coloured formazan, in cell work by metabolically active cells.)

Values after ≈ are worked out from the molar mass of the structure shown. Active and inactive are the calls of the source. No cut-off for these calls is given here.

In the case of `OC(Cn1cncn1)(Cn1cncn1)c1ccc(F)cc1F` [FLUCONAZOLE], the results for the MIC in the data set on Candida albicans [1], in the data set on Saccharomyces cerevisiae [3] and in the data set with Aspergillus niger [4] were 25 µg/mL (≈ 81.6 µM), 12 µg/mL (≈ 39.2 µM) and 8 µg/mL (≈ 26.1 µM), respectively. Moreover, the “diameter of the inhibition zone (DIZ)” value in the data set with Candida albicans [2], in the data set on Saccharomyces cerevisiae [5] and in the data set on Aspergillus niger [6] was 30 mm in each case.
For the molecule `Brc1cccc(-n2cc(COc3ccc4c(c3)CCC4)nn2)c1`, the “diameter of the inhibition zone (DIZ)” value with Salmonella typhi came out at 8 mm; in the data set on Bacillus subtilis, 17 mm; in the data set on Staphylococcus aureus [7] it was 19 mm; in the data set with Bacillus cereus, 10 mm; in data set [10], 14 mm; in the data set on Candida albicans [2], 14 mm. Also, the “diameter of the inhibition zone (DIZ)” value in the data set on Klebsiella aerogenes [12] is 16 mm; in the data set on Pseudomonas aeruginosa it was 14 mm; with Shigella boydii [14], 20 mm; in the data set with Escherichia coli, 15 mm; with Saccharomyces cerevisiae [5], 7 mm; in the data set with Aspergillus niger [6], 6 mm. Further, the MIC in the data set with Candida albicans [1] is 100 µg/mL (≈ 270 µM); with Staphylococcus aureus [8], 100 µg/mL (≈ 270 µM); in the data set on Shigella boydii [9], 130 µg/mL (≈ 351 µM); in the data set with Klebsiella aerogenes [11], 150 µg/mL (≈ 405 µM); in data set [13], greater than 25 µM; with Saccharomyces cerevisiae [3] it was 160 µg/mL (≈ 432 µM). The MIC in the data set with Aspergillus niger [4] turned out to be 190 µg/mL (≈ 513 µM).
In the case of `CN(C)[C@@H]1C(O)=C(C(N)=O)C(=O)[C@@]2(O)C(O)=C3C(=O)c4c(O)cccc4[C@@](C)(O)[C@H]3C[C@@H]12` [TETRACYCLINE], the “diameter of the inhibition zone (DIZ)” value with Salmonella typhi is 33 mm; in the data set on Bacillus subtilis, 32 mm; in the data set on Staphylococcus aureus [7] it was 29 mm; with Bacillus cereus, 33 mm; in data set [10] it was 32 mm; in the data set on Klebsiella aerogenes [12] it was 33 mm. Also, the “diameter of the inhibition zone (DIZ)” value in the data set with Pseudomonas aeruginosa is recorded as 32 mm; with Shigella boydii [14] it was 34 mm; in the data set with Escherichia coli, 29 mm. For the same molecule, the values for the MIC in the data set on Staphylococcus aureus [8], in the data set with Shigella boydii [9] and with Klebsiella aerogenes [11] were 20 µg/mL (≈ 45 µM), 20 µg/mL (≈ 45 µM) and 30 µg/mL (≈ 67.5 µM), respectively.
`O=[N+]([O-])c1cccc(-n2cc(COc3ccc4c(c3)CCC4)nn2)c1`: the “diameter of the inhibition zone (DIZ)” value in the data set on Salmonella typhi was determined as 8 mm; in the data set on Bacillus subtilis it was 12 mm; in the data set with Staphylococcus aureus [7], 8 mm; in the data set with Bacillus cereus it was 13 mm; in data set [10], 8 mm; in the data set with Candida albicans [2] it was 12 mm. For the same molecule, the “diameter of the inhibition zone (DIZ)” value with Klebsiella aerogenes [12] was 14 mm; in the data set with Pseudomonas aeruginosa, 11 mm; in the data set with Shigella boydii [14], 10 mm; in the data set with Escherichia coli it was 12 mm; with Saccharomyces cerevisiae [5], 7 mm; in the data set with Aspergillus niger [6] it was 6 mm. Further, the MIC in the data set on Candida albicans [1] is 125 µg/mL (≈ 372 µM); in the data set on Staphylococcus aureus [8], 165 µg/mL (≈ 491 µM); in the data set with Shigella boydii [9], 90 µg/mL (≈ 268 µM); with Klebsiella aerogenes [11] it was 70 µg/mL (≈ 208 µM); in data set [13] it was greater than 25 µM; in the data set on Saccharomyces cerevisiae [3] it was 180 µg/mL (≈ 535 µM). In the data set with Aspergillus niger [4], the MIC stood at 220 µg/mL (≈ 654 µM).
As for `O=C(Cn1cc(COc2ccc3c(c2)CCC3)nn1)Nc1cccc([N+](=O)[O-])c1`, the “diameter of the inhibition zone (DIZ)” value worked out at 10 mm in the data set on Salmonella typhi; 11 mm in the data set with Bacillus subtilis; 10 mm in the data set with Staphylococcus aureus [7]; 12 mm in the data set with Bacillus cereus; 10 mm in data set [10]; 10 mm in the data set with Candida albicans [2]. Further, the “diameter of the inhibition zone (DIZ)” value is 10 mm in the data set with Klebsiella aerogenes [12]; 6 mm in the data set with Pseudomonas aeruginosa; 10 mm with Shigella boydii [14]; 10 mm in the data set on Escherichia coli; 9 mm with Saccharomyces cerevisiae [5]; 5 mm with Aspergillus niger [6]. For the same molecule, the MIC in the data set with Candida albicans [1] is 150 µg/mL (≈ 381 µM); with Staphylococcus aureus [8], 140 µg/mL (≈ 356 µM); in the data set with Shigella boydii [9] it was 140 µg/mL (≈ 356 µM); with Klebsiella aerogenes [11], 145 µg/mL (≈ 369 µM); in data set [13], greater than 25 µM; with Saccharomyces cerevisiae [3], 135 µg/mL (≈ 343 µM). Also, the MIC with Aspergillus niger [4] came to 220 µg/mL (≈ 559 µM).
`O=C(Cn1cc(COc2ccc3c(c2)CCC3)nn1)Nc1ccccc1`: the “diameter of the inhibition zone (DIZ)” value stood at 12 mm with Salmonella typhi; 12 mm in the data set on Bacillus subtilis; 23 mm with Staphylococcus aureus [7]; 12 mm in the data set with Bacillus cereus; 11 mm in data set [10]; 13 mm in the data set on Candida albicans [2]. In addition, the “diameter of the inhibition zone (DIZ)” value came out at 16 mm in the data set on Klebsiella aerogenes [12]; 10 mm in the data set on Pseudomonas aeruginosa; 11 mm in the data set on Shigella boydii [14]; 11 mm in the data set on Escherichia coli; 12 mm with Saccharomyces cerevisiae [5]; 9 mm with Aspergillus niger [6]. The MIC in the data set with Candida albicans [1] was 85 µg/mL (≈ 244 µM); with Staphylococcus aureus [8], 140 µg/mL (≈ 402 µM); in the data set on Shigella boydii [9] it was 130 µg/mL (≈ 373 µM); with Klebsiella aerogenes [11], 80 µg/mL (≈ 230 µM); in data set [13], greater than 25 µM; with Saccharomyces cerevisiae [3], 110 µg/mL (≈ 316 µM). Also, the MIC with Aspergillus niger [4] was determined as 170 µg/mL (≈ 488 µM).
For `c1ccc(-n2cc(COc3ccc4c(c3)CCC4)nn2)cc1`, the “diameter of the inhibition zone (DIZ)” value (in the data set with Salmonella typhi (Salmonella enterica subsp. enterica serovar Typhi); in the data set on Bacillus subtilis; in the data set on Bacillus cereus; in data set [10]; with Klebsiella aerogenes [12]; with Pseudomonas aeruginosa) was “inactive” each time. Moreover, the “diameter of the inhibition zone (DIZ)” value with Shigella boydii [14], with Escherichia coli and in the data set on Aspergillus niger [6] was “inactive” in each case. For the same molecule, the “diameter of the inhibition zone (DIZ)” value is 7 mm in the data set on Staphylococcus aureus [7], 12 mm in the data set with Candida albicans [2] and 8 mm in the data set on Saccharomyces cerevisiae [5]. In addition, the inhibition at 48 h, 25 µM in data set [15] is 23.4%. The molecule further gave an MIC in data set [13] of 25 µM (≈ 7.28 µg/mL).
For `O=C(Cn1cc(COc2ccc3c(c2)CCC3)nn1)Nc1cccc(Cl)c1`, the “diameter of the inhibition zone (DIZ)” value is given as 13 mm with Salmonella typhi; 12 mm with Bacillus subtilis; 10 mm in the data set on Staphylococcus aureus [7]; 10 mm in the data set on Bacillus cereus; 7 mm in data set [10]; 10 mm in the data set with Candida albicans [2]. The “diameter of the inhibition zone (DIZ)” value in the data set with Klebsiella aerogenes [12] is given as 12 mm; in the data set on Pseudomonas aeruginosa it was 9 mm; in the data set on Shigella boydii [14] it was 11 mm; in the data set on Escherichia coli, 13 mm; with Saccharomyces cerevisiae [5] it was 5 mm; in the data set on Aspergillus niger [6] it was 8 mm. For the same molecule, the MIC with Candida albicans [1] was 165 µg/mL (≈ 431 µM); in the data set with Staphylococcus aureus [8] it was 135 µg/mL (≈ 353 µM); with Shigella boydii [9], 140 µg/mL (≈ 366 µM); in the data set on Klebsiella aerogenes [11], 110 µg/mL (≈ 287 µM); in [13] it was greater than 25 µM; in the data set on Saccharomyces cerevisiae [3], 230 µg/mL (≈ 601 µM). In addition, the MIC in the data set with Aspergillus niger [4] came to 190 µg/mL (≈ 496 µM).

One may read the inhibition as the share of the control response that was lost under treatment.

The values are drawn from ChEMBL document CHEMBL4699525, “Design and synthesis of new indanol-1,2,3-triazole derivatives as potent antitubercular and antimicrobial agents” (Bioorg Med Chem Lett, 2020).
